Measured values as given in PubChem BioAssay AID190 (DTP/NCI, 2004).
Values joined by “and” are separate entries in the source; they are usually repeats but may differ in a detail not shown here. Identical values can stand only once. Inconclusive results and toxic doses are left out. Rule for the calls: active = survival T/C of 150% or more; inactive = T/C below 125% in these data.

System: AKR/Lw mice, AKR lymphoma ip, median survival T/C
Assay: NCI In Vivo Anticancer Drug Screen. Data for tumor model Lymphoma AKR (Transplanted) (intraperitoneal) in AKR/Lw mice
Details: endpoint: median survival time, higher = longer survival
Procedure: The antitumor activity of compounds was measured in mice bearing transplantable tumors. Survival or tumor size were measured and the results are expressed as the measurement made in the treated group (T) divided by the measurement made in the vehicle treated control group (C). The tumor model used in this assay is Lymphoma AKR (Transplanted) (intraperitoneal) in AKR/Lw mice

[1] = dose: 100.0 mg/kg/injection, schedule: Q01DX001 (ip), vehicle: saline
[2] = dose: 100.0 mg/kg/injection, schedule: Q04DX003 (ip), vehicle: Klucel (hydroxypropylcellulose) (HPC)
[3] = dose: 200.0 mg/kg/injection, schedule: Q04DX003 (ip), vehicle: Klucel (hydroxypropylcellulose) (HPC)
[4] = dose: 200.0 mg/kg/injection, schedule: Q01DX001 (ip), vehicle: saline
[5] = dose: 400.0 mg/kg/injection, schedule: Q01DX001 (ip), vehicle: saline

Measured: T/C

C[C@]12C=CC(=O)C=C1CC[C@@H]1[C@@H]2C(=O)C[C@@]2(C)[C@H]1CC[C@]2(O)C(=O)CO
inactive: dose: 1.5 mg/kg/injection, schedule: Q ##X008 (sc), vehicle: steriod suspending solution 108 % of control | dose: 1.5 mg/kg/injection, schedule: Q## X008 (sc), vehicle: steriod suspending solution 108 % of control | dose: 3.0 mg/kg/injection, schedule: Q ##X008 (sc), vehicle: steriod suspending solution 109 % of control | dose: 3.0 mg/kg/injection, schedule: Q## X008 (sc), vehicle: steriod suspending solution 109 % of control | dose: 5.0 mg/kg/injection, schedule: Q01DX009 (sc), vehicle: steriod suspending solution 97 % of control | dose: 6.0 mg/kg/injection, schedule: Q ##X008 (sc), vehicle: steriod suspending solution 106 % of control | dose: 6.0 mg/kg/injection, schedule: Q## X008 (sc), vehicle: steriod suspending solution 106 % of control | dose: 10.0 mg/kg/injection, schedule: Q01DX009 (sc), vehicle: steriod suspending solution 100 % of control | dose: 12.0 mg/kg/injection, schedule: Q ##X008 (sc), vehicle: steriod suspending solution 120 % of control | dose: 12.0 mg/kg/injection, schedule: Q## X008 (sc), vehicle: steriod suspending solution 120 % of control | dose: 12.5 mg/kg/injection, schedule: Q01DX001 (sc), vehicle: steriod suspending solution 108 % of control | dose: 12.5 mg/kg/injection, schedule: Q01DX008 (sc), vehicle: steriod suspending solution 94 % of control | dose: 12.5 mg/kg/injection, schedule: Q04DX003 (sc), vehicle: steriod suspending solution 112 % of control | dose: 12.5 mg/kg/injection, schedule: Q## X008 (sc), vehicle: steriod suspending solution 94 % of control | dose: 15.0 mg/kg/injection, schedule: Q04DX002 (sc), vehicle: water 96 % of control | dose: 20.0 mg/kg/injection, schedule: Q01DX009 (sc), vehicle: steriod suspending solution 108 % of control | dose: 25.0 mg/kg/injection, schedule: Q01DX001 (sc), vehicle: steriod suspending solution 108 % of control and 113 % of control | dose: 25.0 mg/kg/injection, schedule: Q01DX004 (sc), vehicle: steriod suspending solution 115 % of control | dose: 25.0 mg/kg/injection, schedule: Q01DX008 (sc), vehicle: steriod suspending solution 119 % of control | dose: 25.0 mg/kg/injection, schedule: Q01DX009 (sc), vehicle: Klucel (hydroxypropylcellulose) (HPC) 96 % of control | dose: 25.0 mg/kg/injection, schedule: Q01DX009 (sc), vehicle: steriod suspending solution 100 % of control | dose: 25.0 mg/kg/injection, schedule: Q04DX002 (sc), vehicle: steriod suspending solution 99 % of control and 100 % of control | dose: 25.0 mg/kg/injection, schedule: Q04DX003 (sc), vehicle: steriod suspending solution 87 % of control | dose: 25.0 mg/kg/injection, schedule: Q## X008 (sc), vehicle: steriod suspending solution 120 % of control | dose: 30.0 mg/kg/injection, schedule: Q04DX002 (sc), vehicle: water 94 % of control and 98 % of control | dose: 35.0 mg/kg/injection, schedule: Q01DX001 (sc), vehicle: steriod suspending solution 96 % of control | dose: 45.0 mg/kg/injection, schedule: Q01DX001 (sc), vehicle: steriod suspending solution 105 % of control | dose: 50.0 mg/kg/injection, schedule: Q01DX004 (sc), vehicle: steriod suspending solution 100 % of control | dose: 50.0 mg/kg/injection, schedule: Q01DX008 (sc), vehicle: steriod suspending solution 101 % of control | dose: 50.0 mg/kg/injection, schedule: Q01DX009 (ip), vehicle: water 115 % of control | dose: 50.0 mg/kg/injection, schedule: Q01DX009 (sc), vehicle: steriod suspending solution 110 % of control | dose: 50.0 mg/kg/injection, schedule: Q04DX002 (sc), vehicle: steriod suspending solution 109 % of control | dose: 50.0 mg/kg/injection, schedule: Q04DX003 (sc), vehicle: steriod suspending solution 100 % of control and 108 % of control and 112 % of control | dose: 50.0 mg/kg/injection, schedule: Q## X008 (sc), vehicle: steriod suspending solution 101 % of control | dose: 60.0 mg/kg/injection, schedule: Q04DX002 (sc), vehicle: water 110 % of control and 111 % of control | dose: 75.0 mg/kg/injection, schedule: Q01DX001 (sc), vehicle: steriod suspending solution 100 % of control | dose: 75.0 mg/kg/injection, schedule: Q04DX002 (sc), vehicle: steriod suspending solution 106 % of control | dose: 90.0 mg/kg/injection, schedule: Q01DX001 (sc), vehicle: steriod suspending solution 114 % of control | dose: 100.0 mg/kg/injection, schedule: Q01DX004 (sc), vehicle: steriod suspending solution 113 % of control | dose: 100.0 mg/kg/injection, schedule: Q01DX008 (sc), vehicle: steriod suspending solution 78 % of control | dose: 100.0 mg/kg/injection, schedule: Q01DX009 (ip), vehicle: water 118 % of control | dose: 100.0 mg/kg/injection, schedule: Q01DX009 (sc), vehicle: steriod suspending solution 102 % of control | dose: 100.0 mg/kg/injection, schedule: Q04DX002 (sc), vehicle: steriod suspending solution 110 % of control | dose: 150.0 mg/kg/injection, schedule: Q04DX003 (ip), vehicle: saline 92 % of control | dose: 150.0 mg/kg/injection, schedule: Q04DX003 (sc), vehicle: steriod suspending solution 105 % of control and 118 % of control and 121 % of control | dose: 180.0 mg/kg/injection, schedule: Q01DX001 (sc), vehicle: steriod suspending solution 120 % of control | dose: 200.0 mg/kg/injection, schedule: Q01DX001 (sc), vehicle: steriod suspending solution 93 % of control and 102 % of control (2×) | dose: 200.0 mg/kg/injection, schedule: Q01DX009 (sc), vehicle: steriod suspending solution 89 % of control | dose: 300.0 mg/kg/injection, schedule: Q04DX003 (ip), vehicle: saline 95 % of control | dose: 300.0 mg/kg/injection, schedule: Q04DX003 (sc), vehicle: steriod suspending solution 114 % of control and 115 % of control (2×) | dose: 400.0 mg/kg/injection, schedule: Q04DX003 (sc), vehicle: steriod suspending solution 95 % of control | dose: 500.0 mg/kg/injection, schedule: Q01DX001 (sc), vehicle: steriod suspending solution 95 % of control | dose: 600.0 mg/kg/injection, schedule: Q01DX001 (sc), vehicle: steriod suspending solution 102 % of control

CCCCCCCCCCCCCCCC(=O)N(CCCN)CCCCCCCCCN(CCCN)C(=O)CCCCCCCCCCCCCCC
inactive: dose: 12.5 mg/kg/injection, schedule: Q01DX009 (ip), vehicle: saline 100 % of control | dose: 25.0 mg/kg/injection, schedule: Q01DX009 (ip), vehicle: saline 92 % of control | dose: 50.0 mg/kg/injection, schedule: Q01DX009 (ip), vehicle: saline 107 % of control | dose: 50.0 mg/kg/injection, schedule: Q04DX003 (ip), vehicle: other 95 % of control | [1] 108 % of control | dose: 100.0 mg/kg/injection, schedule: Q04DX003 (ip), vehicle: other 95 % of control

S=c1[nH]nc(NC2CCCCC2)s1
inactive: dose: 100.0 mg/kg/injection, schedule: Q01DX001 (ip), vehicle: Klucel (hydroxypropylcellulose) (HPC) 100 % of control | [2] 100 % of control | dose: 200.0 mg/kg/injection, schedule: Q01DX001 (ip), vehicle: Klucel (hydroxypropylcellulose) (HPC) 90 % of control | [3] 90 % of control | dose: 400.0 mg/kg/injection, schedule: Q01DX001 (ip), vehicle: Klucel (hydroxypropylcellulose) (HPC) 87 % of control

O=C(O)C12CCC(CC1)C2
inactive: dose: 25.0 mg/kg/injection, schedule: Q04DX003 (ip), vehicle: saline 110 % of control | dose: 50.0 mg/kg/injection, schedule: Q04DX003 (ip), vehicle: saline 102 % of control | [1] 103 % of control | dose: 100.0 mg/kg/injection, schedule: Q04DX003 (ip), vehicle: saline 100 % of control | [4] 105 % of control | [5] 105 % of control

N=Cc1c(O)[nH]c(=O)[nH]c1=O
inactive: [1] 105 % of control | [2] 100 % of control | [4] 119 % of control | [3] 93 % of control | [5] 88 % of control
